Values after ≈ are worked out from the molar mass of the structure shown.
Experiments:
E. coli ATCC 25922 = experiment: microbe, parasite or virus in culture; assay type: cell-based, Escherichia coli; settings: E. coli ATCC 25922, MHB
Protocol: (§1) The antibacterial activity of TP10-NH2-based conjugates, as well as its constituents, was evaluated by microdilution assay in Mueller Hinton broth, MHB (Table 1). […] There are, however, some exceptions. […] Its activity against two other tested bacteria was somewhat lower though.
(§2) The antibacterial activity (bacteriostatic: MIC and bactericidal: MBC) of the tested compounds was determined in MHB (Mueller Hinton Broth, Sigma Aldrich, St. Louis, MO, USA) using a serial two-fold dilution method in 96-well microtiter plates according to CLSI recommendations, described in M07-A10 document. The exact conditions have been described previously. All experiments were performed in three replicates. The MIC90 and MIC50 values were defined as the concentrations of compounds tested that caused a 90% or 50% reduction of growth, respectively, comparing to the drug-free control.

[1] = test system: S. epidermidis ATCC 12228; experiment: microbe, parasite or virus in culture; assay type: cell-based, Staphylococcus epidermidis; settings: S. epidermidis ATCC 12228, MHB
Protocol: as §1, §2

P. aeruginosa ATCC 27853 = experiment: microbe, parasite or virus in culture; assay type: cell-based, Pseudomonas aeruginosa; settings: P. aeruginosa ATCC 27853, MHB
Protocol: as §1, §2

bacteria = experiment: Influence of salts: antibacterial activity in MHB2 compared to MHB; assay type: cell-based; settings: MHB2: Ca(II) 20–25 mg/L, Mg(II) 10–12.5 mg/L
Protocol: Additionally, for selected compounds, the aspect of the influence of salts present in the medium on antimicrobial activity was evaluated. […] In the salt-enriched medium, the MIC values determined for TP10-NH2 were up to 40-fold higher than those found in MHB. The phenomenon of reduction of the growth inhibitory activity of antimicrobial peptides at a high salt concentration was previously evidenced by other researchers. It may cause severe limitations for AMPs’ usage as therapeutic agents because of the risk of potential inactivation by salts present in the human body.

S. aureus ATCC 29213 = experiment: microbe, parasite or virus in culture; assay type: cell-based, Staphylococcus aureus; settings: S. aureus ATCC 29213, MHB
Protocol: as §1, §2

LLC-PK1 = experiment: cells; assay type: cell-based, pig; settings: LLC-PK1, 72 h, MTT
Protocol: (§3) Among the conjugates, LVXC-S-S-CTP10-NH2 (5) was the least cytotoxic. […] In the case of HEK 293 and LLC-PK1 cells, the IC50 values of 5 were nearly four times higher. […] Additionally, we noted that the cancer cells Hep G2 were less sensitive to the action of the given compounds than the non-cancer cells (HEK 293 and LLC-PK1).
(§4) Cytotoxicity was assessed against three mammalian cell lines: LLC-PK1, Hep G2, and HEK 293. Multiwell (96–well) plates were seeded at 7000 cells/well in Medium 199 supplemented with 7.5% FBS, MEM Eagle’s medium supplemented with 10% FBS, or DMEM medium supplemented with 10% FBS, respectively. All media were supplemented with L-glutamine and antibiotics (penicillin/streptomycin). Cells were allowed to attach overnight. Drugs were dissolved in cell culture medium and added to wells in 100-µL aliquots of 2× concentrated solutions, in triplicates. To control wells, 100 µL of the medium were added. Cells were incubated with the studied compounds for 72 h at 37 °C and 95%/5% or 90%/10% (HEK 293 cells) CO2 atmosphere. Then, 20-µL aliquots of MTT solution in PBS (4 mg/mL) were added to all wells and plates were incubated further for 3 h in 37 °C. Formazan crystals formed were dissolved in 100 µL of DMSO and the absorbance of the solutions was measured using a multiwell plate reader (Spark, Tecan, Männedorf, Switzerland) at λ = 540 nm. Cytotoxicity was determined compared to the drug-free control. All experiments were performed in triplicates.

Hep G2 = experiment: cells; assay type: cell-based, human; settings: Hep G2, 72 h, MTT
Protocol: as §3, §4

HEK 293 [2] = experiment: cells; assay type: cell-based, human; settings: HEK 293, 72 h, MTT
Protocol: as §3, §4

[3] = test system: C. albicans Δopt1Δopt5Δptr2Δptr22
HL-60 and HEK 293 cells = experiment: ROS generation, statements not split by cell line; assay type: cell-based, human; settings: cell line not specified
Protocol: (§5) In the positive controls treated with H2O2, the fraction of ROS-positive cells exceeded 75%. […] Strikingly, in HL-60, a biologically significant effect was observed almost immediately (after 15 min of incubation). The same was noted after 1 h in the HEK 293 cell line. […] Similarly, conjugates 4 and 5 generated ROS at the low level (less than 15% for HL-60 and less than 20% for HEK 293) (manuscript in preparation). […] For HL-60, the critical level of ROS was noted after 15 min of incubation.
(§6) ROS generation activity was evaluated as described previously. Briefly, HEK 293 cells were seeded on 35-mm Petri dishes in the amount of 15,000 cells per plate for 24 h in DMEM medium. […] Positive controls contained 250 µM H2O2, while negative controls were without any additions. After 0.5, 2.5, 5.5, and 24 h of incubation at 37 °C, the CM-H2DCFDA molecular probe (Thermo Fischer Scientific, Waltham, USA) was added to the plates and incubation was continued for another 0.5 h. The HEK 293 cells were detached with 0.05% trypsin solution in PBS and HBSS (Hank’s Balanced Salt Solution) and suspended in fresh DMEM medium. All samples were additionally stained with 7-AAD (7-aminoactinomycin D, 0.8 µg/mL) and immediately analysed with a Guava easyCyte flow cytometer (Merc, Burlington, USA). The determinations were performed in triplicates.

[4] = test system: Gram-positive and Gram-negative bacteria; assay type: cell-based; settings: MHB, four bacteria
Protocol: as §1, §2

human red blood cells = experiment: Hemolysis assay; settings: 1 h, 37 °C
HL-60 = experiment: ROS generation (CM-H2DCFDA, flow cytometry); assay type: cell-based, human; settings: positive cells in 24 h, class
Protocol: as §5, §6

HEK 293 [5] = experiment: ROS generation (CM-H2DCFDA, flow cytometry); assay type: cell-based, human; settings: positive cells in 24 h, class
Protocol: as §5, §6

[6] = test system: S. aureus ATCC 25,923 cells; experiment: Stability inside bacterial cells (LC-MS of cell lysate)
[7] = target: T1, yeast DNA topoisomerase II (Saccharomyces cerevisiae, UniProt P06786); experiment: biochemical; assay type: biochemical; settings: class; read-out: Topoisomerase II Inhibition
T1 construct: purchased Inspiralis (Norwich, UK)
T1 sequence (P06786 whole entry): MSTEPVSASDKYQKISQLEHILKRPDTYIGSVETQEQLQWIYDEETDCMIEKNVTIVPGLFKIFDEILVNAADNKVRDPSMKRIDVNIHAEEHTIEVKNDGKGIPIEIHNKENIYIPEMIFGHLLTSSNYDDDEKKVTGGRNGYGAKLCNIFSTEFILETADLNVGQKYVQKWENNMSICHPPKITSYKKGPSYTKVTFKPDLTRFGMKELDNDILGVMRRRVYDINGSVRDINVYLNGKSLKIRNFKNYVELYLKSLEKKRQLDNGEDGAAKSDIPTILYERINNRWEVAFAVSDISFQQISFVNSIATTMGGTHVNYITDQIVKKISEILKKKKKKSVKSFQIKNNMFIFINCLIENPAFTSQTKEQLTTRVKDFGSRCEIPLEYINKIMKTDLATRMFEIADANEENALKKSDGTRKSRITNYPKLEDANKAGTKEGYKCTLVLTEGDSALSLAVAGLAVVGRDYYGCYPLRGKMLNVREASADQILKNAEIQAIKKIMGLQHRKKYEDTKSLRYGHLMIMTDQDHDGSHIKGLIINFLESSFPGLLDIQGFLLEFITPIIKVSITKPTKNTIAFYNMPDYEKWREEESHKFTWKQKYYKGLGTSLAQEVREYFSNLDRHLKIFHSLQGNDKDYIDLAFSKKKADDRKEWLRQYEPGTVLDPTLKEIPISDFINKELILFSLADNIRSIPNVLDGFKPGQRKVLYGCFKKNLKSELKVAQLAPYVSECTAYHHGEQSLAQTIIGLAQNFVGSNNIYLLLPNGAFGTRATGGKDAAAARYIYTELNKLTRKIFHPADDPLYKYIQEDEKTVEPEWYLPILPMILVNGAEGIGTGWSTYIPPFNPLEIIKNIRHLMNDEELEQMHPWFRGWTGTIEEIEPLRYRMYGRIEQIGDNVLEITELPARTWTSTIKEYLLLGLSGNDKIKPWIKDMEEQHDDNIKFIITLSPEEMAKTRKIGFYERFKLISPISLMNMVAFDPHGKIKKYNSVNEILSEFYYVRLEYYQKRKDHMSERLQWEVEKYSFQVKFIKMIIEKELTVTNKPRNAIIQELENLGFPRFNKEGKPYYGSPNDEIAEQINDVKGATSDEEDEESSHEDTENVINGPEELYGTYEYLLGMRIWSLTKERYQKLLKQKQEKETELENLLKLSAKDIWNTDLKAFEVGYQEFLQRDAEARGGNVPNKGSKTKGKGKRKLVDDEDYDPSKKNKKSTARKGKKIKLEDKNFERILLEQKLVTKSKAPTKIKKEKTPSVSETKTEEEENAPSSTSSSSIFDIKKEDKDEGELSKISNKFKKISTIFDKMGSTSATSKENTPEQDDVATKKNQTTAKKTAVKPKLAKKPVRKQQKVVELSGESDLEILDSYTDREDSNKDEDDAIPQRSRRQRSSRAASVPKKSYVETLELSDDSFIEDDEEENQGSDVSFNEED

[8] = Stability in PBS and growth media; assay type: physicochemical; settings: phosphate-buffered saline and growth media used for antibacterial and antifungal tests
Excerpt: CIP-S-S-TP10-NH2 was stable in phosphate-buffered saline (PBS) and growth media used for the determination of antibacterial and antifungal in vitro activity.

## CC[C@H](C)[C@H](NC(=O)[C@H](CCCCN)NC(=O)[C@H](CCCCN)NC(=O)[C@H](C)NC(=O)[C@H](CC(C)C)NC(=O)[C@H](C)NC(=O)[C@H](C)NC(=O)[C@H](CC(C)C)NC(=O)[C@H](C)NC(=O)[C@H](CCCCN)NC(=O)[C@H](CC(C)C)NC(=O)[C@H](CC(N)=O)NC(=O)[C@@H](NC(=O)[C@H](CCCCN)NC(=O)CNC(=O)[C@H](CC(C)C)NC(=O)[C@H](CC(C)C)NC(=O)[C@H](Cc1ccc(O)cc1)NC(=O)CNC(=O)[C@H](C)NC(=O)CN1CCN(c2cc3c(cc2F)c(=O)c(C(=O)O)cn3C2CC2)CC1)[C@@H](C)CC)C(=O)N[C@@H](CC(C)C)C(N)=O [Compound 1, CIP-CH2CO-TP10-NH2]
E. coli ATCC 25922
  MIC50: 25 µM (≈ 63.8 µg/mL)
  MIC90: 25 µM (≈ 63.8 µg/mL)
C. krusei DSM 6128
  MIC50: 50 µM (≈ 128 µg/mL)
[1]
  MIC50: 6.25 µM (≈ 16 µg/mL)
  MIC90: 12.5 µM (≈ 31.9 µg/mL)
C. glabrata DSM 11226
  MIC50: >200 µM
C. albicans Gu4
  MIC50: 50 µM (≈ 128 µg/mL)
C. albicans SC 5314
  MIC50: 50 µM (≈ 128 µg/mL)
  MIC90: 100 µM (≈ 255 µg/mL)
P. aeruginosa ATCC 27853
  MIC50: >100 µM
  MIC90: >100 µM
bacteria
  Influence of salts (MHB2 vs MHB) on antibacterial activity: slight decrease of antibacterial activity
S. aureus ATCC 29213
  MIC50: 12.5 µM (≈ 31.9 µg/mL)
  MIC90: 12.5 µM (≈ 31.9 µg/mL)
LLC-PK1
  IC50: 17.8 ± 1.93 µM
Hep G2
  IC50: 21.7 ± 2.18 µM
HEK 293 [2]
  IC50: 10.8 ± 1.87 µM
[3]
  MIC50: 100 µM (≈ 255 µg/mL)
  MIC90: 200 µM (≈ 511 µg/mL)

## CC[C@H](C)[C@H](NC(=O)[C@H](CCCCN)NC(=O)[C@H](CCCCN)NC(=O)[C@H](C)NC(=O)[C@H](CC(C)C)NC(=O)[C@H](C)NC(=O)[C@H](C)NC(=O)[C@H](CC(C)C)NC(=O)[C@H](C)NC(=O)[C@H](CCCCN)NC(=O)[C@H](CC(C)C)NC(=O)[C@H](CC(N)=O)NC(=O)[C@@H](NC(=O)[C@H](CCCCN)NC(=O)CNC(=O)[C@H](CC(C)C)NC(=O)[C@H](CC(C)C)NC(=O)[C@H](Cc1ccc(O)cc1)NC(=O)CNC(=O)[C@H](C)NC(=O)c1cn(C2CC2)c2cc(N3CCNCC3)c(F)cc2c1=O)[C@@H](C)CC)C(=O)N[C@@H](CC(C)C)C(N)=O [Compound 2, CIP-TP10-NH2]
E. coli ATCC 25922
  MIC50: 1.6 µM (≈ 3.99 µg/mL)
  MIC90: 1.6 µM (≈ 3.99 µg/mL)
C. krusei DSM 6128
  MIC50: 50 µM (≈ 125 µg/mL)
[1]
  MIC50: 1.6 µM (≈ 3.99 µg/mL)
  MIC90: 1.6 µM (≈ 3.99 µg/mL)
C. glabrata DSM 11226
  MIC50: >200 µM
HL-60 and HEK 293 cells
  ROS generation: no ROS generation was observed
C. albicans Gu4
  MIC50: 25 µM (≈ 62.4 µg/mL)
C. albicans SC 5314
  MIC50: 12.5 µM (≈ 31.2 µg/mL)
  MIC90: 12.5 µM (≈ 31.2 µg/mL)
[4]
  MIC values, range over tested bacteria: 0.8 to 3.125 µM
S. aureus ATCC 29213
  MIC50: 0.8 µM (≈ 2 µg/mL)
  MIC90: 0.8 µM (≈ 2 µg/mL)
LLC-PK1
  IC50: 27.1 ± 1.82 µM
Human red blood cells
  MHC50 (concentration causing 50% hemolysis): 25 µg/mL
Human red blood cells; converted from μg/mL
  MHC50 (concentration causing 50% hemolysis): ~ 10 μM
Hep G2
  IC50: 11.5 ± 2.03 µM
HEK 293 [2]
  IC50: 10.4 ± 1.39 µM
HL-60
  ROS HL-60: ++ (++ <10% positive cells in 24 h)
HEK 293 [5]
  ROS HEK 293: ++ (++ <10% positive cells in 24 h)
[3]
  MIC50: 6.25 µM (≈ 15.6 µg/mL)
  MIC90: 12.5 µM (≈ 31.2 µg/mL)

## CC[C@H](C)[C@H](NC(=O)[C@H](CCCCN)NC(=O)[C@H](CCCCN)NC(=O)[C@H](C)NC(=O)[C@H](CC(C)C)NC(=O)[C@H](C)NC(=O)[C@H](C)NC(=O)[C@H](CC(C)C)NC(=O)[C@H](C)NC(=O)[C@H](CCCCN)NC(=O)[C@H](CC(C)C)NC(=O)[C@H](CC(N)=O)NC(=O)[C@@H](NC(=O)[C@H](CCCCN)NC(=O)CNC(=O)[C@H](CC(C)C)NC(=O)[C@H](CC(C)C)NC(=O)[C@H](Cc1ccc(O)cc1)NC(=O)CNC(=O)[C@H](C)NC(=O)CCSSCCC(=O)N1CCN(c2cc3c(cc2F)c(=O)c(C(=O)O)cn3C2CC2)CC1)[C@@H](C)CC)C(=O)N[C@@H](CC(C)C)C(N)=O [Compound 3, CIP-S-S-TP10-NH2]
E. coli ATCC 25922
  MIC50: 0.0125 µM (≈ 0.0336 µg/mL)
  MIC90: 0.025 µM (≈ 0.0672 µg/mL)
C. krusei DSM 6128
  MIC50: 25 µM (≈ 67.2 µg/mL)
[1]
  MIC50: 0.8 µM (≈ 2.15 µg/mL)
  MIC90: 0.8 µM (≈ 2.15 µg/mL)
C. glabrata DSM 11226
  MIC50: >200 µM
HL-60 and HEK 293 cells
  ROS generation: no ROS generation was observed
C. albicans Gu4
  MIC50: 6.25 µM (≈ 16.8 µg/mL)
C. albicans SC 5314
  MIC50: 6.25 µM (≈ 16.8 µg/mL)
  MIC90: 25 µM (≈ 67.2 µg/mL)
P. aeruginosa ATCC 27853
  MIC50: 0.8 µM (≈ 2.15 µg/mL)
  MIC90: 1.6 µM (≈ 4.3 µg/mL)
[6]
  Stability inside bacterial cells: reduced inside the cell
[7]
  IC50: < 50 µM
S. aureus ATCC 29213
  MIC50: 0.8 µM (≈ 2.15 µg/mL)
  MIC90: 0.8 µM (≈ 2.15 µg/mL)
LLC-PK1
  IC50: 16.8 ± 2.62 µM
Hep G2
  IC50: 19 ± 2.08 µM
HEK 293 [2]
  IC50: 13.1 ± 1.22 µM
HL-60
  ROS HL-60: + (+ <15% positive cells in 24 h)
HEK 293 [5]
  ROS HEK 293: ++ (++ <10% positive cells in 24 h)
[3]
  MIC50: 12.5 µM (≈ 33.6 µg/mL)
  MIC90: 25 µM (≈ 67.2 µg/mL)
[8]
  Stability in PBS and growth media: stable
